In patent publication US20250320227A1, “MACROCYCLIC OREXIN RECEPTOR AGONISTS AND USES THEREOF” (Jazz Pharmaceuticals Ireland Limited, priority 2022, published 2025) one finds ring closure, yield of all isomers and EC50 data, which are given here for twelve compounds.

The target in data set [1] is T1, human recombinant OX2 (hOX2) receptors expressed in CHO cells (Homo sapiens, UniProt O43614).
T1 construct: host or cells: CHO cells (hOX2-CHO)
T1 sequence (O43614 1-444): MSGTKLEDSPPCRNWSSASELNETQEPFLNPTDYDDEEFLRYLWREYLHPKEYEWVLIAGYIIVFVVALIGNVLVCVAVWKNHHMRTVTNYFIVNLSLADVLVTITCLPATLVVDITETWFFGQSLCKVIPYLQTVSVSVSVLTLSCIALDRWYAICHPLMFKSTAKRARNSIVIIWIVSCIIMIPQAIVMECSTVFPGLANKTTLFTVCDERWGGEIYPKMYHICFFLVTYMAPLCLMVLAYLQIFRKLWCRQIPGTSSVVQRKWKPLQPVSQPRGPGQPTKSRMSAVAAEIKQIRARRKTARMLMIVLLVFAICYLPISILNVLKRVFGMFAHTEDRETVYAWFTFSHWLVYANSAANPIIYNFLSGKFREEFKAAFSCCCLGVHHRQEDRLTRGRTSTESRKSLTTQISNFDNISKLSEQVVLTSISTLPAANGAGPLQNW
In words: IP-1 accumulation assay (IP-One HTRF) in hOX2-CHO cells. The class given is cell-based. The following applies: 60 min incubation at 37° C., mean of at least two independent experiments, read-out: EC50_OX2R Category. The procedure, abridged:
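IP-1 HTRF (665/615 ratio) after 60 min compound exposure at 37 °C, 11-point dilution, 0.5% DMSO, LiCl-containing HEPES-buffered HBSS pH 7.4. Response expressed as percent of maximal OX-A effect; EC50 by four-parameter logistic fit, averaged over at least two independent experiments in duplicate.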
On the technique in general: Time-resolved FRET reads energy transfer from a long-lived donor to a nearby acceptor.

Structures are written as SMILES. Like-named read-outs stand apart in the source and are kept apart here.

`C[C@@H]1CC2(COCC(=O)N2)C2Cc3cccc(c3F)-c3ccccc3OCCC(=O)N21` (mixture of isomers) [Example 26, (13′R)-22′-fluoro-13′-methyl-8′-oxa-12′-azaspiro[morpholine-3,15′-tetracyclo[16.3.1.0^2,70.0^12,16]docosane]-1′(22′),2′(7′),3′,5′,18′,20′-hexaene-5,11′-dione]: the ring closure, yield of all isomers (from C[C@@H]1CC2(COCC(=O)N2)C(Cc2cccc(-c3ccccc3OCCC(=O)O)c2F)N1, amide bond, HATU, DIPEA, acetonitrile, 0.84 mM, 25.0 °C, 2.5 h) turned out to be 2.4%. Also, the EC50 in data set [1] was 1000 to 10000 nM.
Take `C[C@@H]1CC2(COCC(=O)N2)C2Cc3cccc(c3F)-c3ccccc3OCCCC(=O)N21` (mixture of isomers) [Example 27, (14′R)-23′-fluoro-14′-methyl-8′-oxa-13′-azaspiro[morpholine-3,16′-tetracyclo[17.3.1.0^2,70.0^13,17]tricosane]-1′(23′),2′(7′),3′,5′,19′,21′-hexaene-5, 12′-dione]: under “from C[C@@H]1CC2(COCC(=O)N2)C(Cc2cccc(-c3ccccc3OCCCC(=O)O)c2F)N1, amide bond, HATU, MeCN, 2.3 mM, 25.0 °C, 2.5 h”, the ring closure, yield of all isomers came to 84.9%. Besides, the EC50 in data set [1] fell in the range of 100 to 1000 nM.
For the setting “from O=C(O)CC(Oc1ccccc1[C@H]1CC[C@@H](OC[C@@H]2NCC[C@@]23COCC(=O)N3)CC1)C(F)(F)F, amide bond, HATU/DIPEA, acetonitrile, 3.68 mM, 3.0 h”, `O=C1COC[C@@]2(CCN3C(=O)CC(C(F)(F)F)Oc4ccccc4[C@H]4CC[C@H](CC4)OC[C@H]32)N1` (relative stereo) registered a ring closure, yield of all isomers of 54.7%.
For the compound `O=C1COC[C@@]2(CCN3C(=O)CCCOc4ccccc4[C@H]4CC[C@H](CC4)OC[C@H]32)N1` (relative stereo), where the note is “from O=C(O)CCCOc1ccccc1[C@H]1CC[C@@H](OC[C@@H]2NCC[C@@]23COCC(=O)N3)CC1, amide bond, HATU/DIPEA, acetonitrile, 2.01 mM, 3.0 h”, the ring closure, yield of all isomers amounted to 54.4%.
Take `O=C1COC[C@@]2(CCN3C(=O)CCOc4c(F)cc(F)cc4C4=CCC(CC4)OC[C@H]32)N1` (relative stereo): the ring closure, yield of all isomers (from O=C(O)CCOc1c(F)cc(F)cc1C1=CCC(OC[C@@H]2NCC[C@@]23COCC(=O)N3)CC1, amide bond, HATU/DIPEA, acetonitrile, 3.43 mM, 3.0 h) was determined as 60.1%.
`O=C1COC[C@@]2(CCN3C(=O)CCOc4cccc(F)c4[C@H]4CC[C@H](CC4)OC[C@H]32)N1` (relative stereo) gave a ring closure, yield of all isomers (from O=C(O)CCOc1cccc(F)c1[C@H]1CC[C@@H](OC[C@@H]2NCC[C@@]23COCC(=O)N3)CC1, amide bond, HATU/DIPEA, acetonitrile, 5.42 mM, 25.0 °C, 4.0 h) of 46.4%.
The compound `O=C1COC[C@@]2(CCN3C(=O)CCOc4ccccc4[C@H]4CC[C@H](CC4)OC[C@H]32)N1` (relative stereo) came in with a ring closure, yield of all isomers (from O=C(O)CCOc1ccccc1[C@H]1CC[C@@H](OC[C@@H]2NCC[C@@]23COCC(=O)N3)CC1, amide bond, HATU/DIPEA, acetonitrile, 1.97 mM, 3.0 h) of 92.6%.
On to `O=C1N[C@]2(CCN3C(=O)CCOc4ccccc4[C@H]4CC[C@H](CC4)OC[C@H]32)COC1F` (relative stereo), for which the ring closure, yield of all isomers (from O=C(O)CCOc1ccccc1[C@H]1CC[C@@H](OC[C@@H]2NCC[C@@]23COC(F)C(=O)N3)CC1, amide bond, HATU/DIPEA, acetonitrile, 3.66 mM, 3.0 h) is 46.1%.
In turn, `CC1COc2ccccc2[C@H]2CC[C@H](CC2)OC[C@@H]2N(CC[C@@]23COCC(=O)N3)C1=O` (relative stereo) [Example 5c, (1′s,3R,10′R,16′S,19′s)-10′-methyl-8′,18′-dioxa-12′-azaspiro[morpholine-3,15′-tetracyclo[17.2.2.0^2,70.0^12,16]tricosane]-2′(7′),3′,5′-triene-5,11′-dione and (1′s,3S, 10′S,16′R,19′s)-10′-methyl-8′,18′-dioxa-12′-azaspiro[morpholine-3,15′-tetracyclo[17.2.2.0^2,70.0^12,16]tricosane]-2′(7′), 3′,5′-triene-5,11′-dione] registered a ring closure, yield of all isomers (from CC(COc1ccccc1[C@H]1CC[C@@H](OC[C@@H]2NCC[C@@]23COCC(=O)N3)CC1)C(=O)O, amide bond, HATU/DIPEA, acetonitrile, 3.68 mM, 3.0 h) of 9.4%. For the same compound, in data set [1], the EC50 fell in the range of 100 to 1000 nM.
The compound `C[C@@H]1C[C@@]2(COCC(=O)N2)[C@@H]2CO[C@H]3CC[C@H](CC3)c3c(F)cccc3OCC(=O)N12` (single isomer, unassigned) [Example 17a] showed a ring closure, yield of all isomers (from C[C@@H]1CC2(COCC(=O)N2)C(CO[C@H]2CC[C@@H](c3c(F)cccc3OCC(=O)O)CC2)N1, amide bond, HATU, DIPEA, acetonitrile, 19.2 mM, 3.0 h) of 9%. The EC50 in data set [1] is < 100 nM.
`C[C@@H]1C[C@@]2(COCC(=O)N2)[C@@H]2CO[C@H]3CC[C@H](CC3)c3cccc(F)c3OCCC(=O)N12` (single isomer, unassigned) [Example 24a]: for the setting “from C[C@@H]1CC2(COCC(=O)N2)C(CO[C@H]2CC[C@@H](c3cccc(F)c3OCCC(=O)O)CC2)N1, amide bond, HATU, DIPEA, acetonitrile, 12.2 mM, 3.0 h”, the ring closure, yield of all isomers was determined as 37.1%. Besides, the EC50 in data set [1] was < 100 nM.
Compound `Cc1ccnc2c1[C@H]1CC[C@H](CC1)OCC1N(CCCC13COCC(=O)N3)C(=O)CO2` (stereo partly drawn) [Example 77, (1′s,19′s)-3′-methyl-8′,18′-dioxa-6′,11′-diazaspiro[morpholine-3,15′-tetracyclo[17.2.2.0^2,70.0^11,16]tricosane]-2′,4′,6′-triene-5,10′-dione] returned a ring closure, yield of all isomers (from Cc1ccnc(O)c1[C@H]1CC[C@@H](OCC2N(C(=O)CCl)CCCC23COCC(=O)N3)CC1, ether bond, K2CO3, acetonitrile, 2.06 mM, 90.0 °C, 12.0 h) of 9.4%. In data set [1], the EC50 is < 100 nM.
